Values joined by “and” are separate entries in the source; they are usually repeats but may differ in a detail not shown here. Identical values can stand only once. After the bases stand the sugars from the 5' end (letter, count) and the backbone: PS all phosphorothioate, else s phosphorothioate and o phosphodiester by linkage. Methylation of C is not given here. e = 2'-O-(2-methoxyethyl) (MOE); d = 2'-deoxy (DNA)
Molecular target: DGAT2
Conditions: ASO

Row | Sequence | target mRNA inhibition (HepG2, 2.5 µM) | target mRNA inhibition (HepG2, 10 µM) | target mRNA inhibition (HepG2, 0.12 µM) [%] | target mRNA inhibition (HepG2, 20 µM) [%]
1 | GGGCTAATACCTACCTCACC (sugars e5 d10 e5, PS) | 53% | 74% | – | –
2 | GCCTGGACAAGTCCTGC (sugars e3 d10 e4, PS) | 68% and 75% | 89% and 97% | – | –
3 | TGCACCTTGTATTAAATACT (sugars e5 d10 e5, PS) | 76% and 65% | 93% and 87% | – | –
4 | TCACAGAATTATCAGCAGTA (sugars e5 d10 e5, PS) | 80% and 61% | 93% and 84% | – | –
5 | GGCAGAGAAACTGGTCCTGC (sugars e5 d10 e5, PS) | 55% | 81% | – | –
6 | CCAGTTTCGGACCCACTGTG (sugars e2 d13 e5, PS) | 12% | 25% and 50% | 80 | 50
7 | CCAGGCCAAGGCTGAGTCTG (sugars e5 d10 e5, PS) | – | – | 27 | –
8 | TCTGGACCCATCGGCCCCAG (sugars e5 d10 e5, PS) | – | – | 20 | –
9 | ACTCCCACCTGAGTGCTGCA (sugars e5 d10 e5, PS) | 92% | 80% | – | –
10 | CGGACTGAATGTCACCTCTT (sugars e5 d10 e5, PS) | 74% and 73% | 90% and 76% | – | –
11 | CGGAGAGGATGCTGGATCCA (sugars e5 d10 e5, PS) | – | – | 47 | –
12 | TGCCAATGCCTAGGTCACAG (sugars e5 d10 e5, PS) | 78% and 87% | 87% and 91% | – | –
13 | TGATAGCATTGCCACTCCCA (sugars e5 d10 e5, PS) | – | – | 64 | –
14 | CAGGTTGTGTGTCTTCACCA (sugars e2 d13 e5, PS) | – | – | 62 | –
15 | AAGTGAACCCTCACTTCCCA (sugars e5 d10 e5, PS) | – | – | 35 | –
16 | CCCTGGGACTCAGTGTCCTC (sugars e5 d10 e5, PS) | 90% | 83% | – | –
17 | ATATACAAAAGTCTGACATG (sugars e5 d10 e5, PS) | – | – | 21 | –
18 | ACATATCCCCAACTGAAACA (sugars e5 d10 e5, PS) | – | – | 21 | –
19 | GCTCAGAGACTCAGCCGCAC (sugars e2 d13 e5, PS) | 13% | 35% | 82 | 66
20 | CCCCCACTGTCAGTCTCTCC (sugars e5 d10 e5, PS) | 37% | 76% | – | –
21 | GGTTGCAATGTTGCCATCAT (sugars e5 d10 e5, PS) | 91% and 83% | 93% and 91% | – | –

Row | Sequence | target mRNA inhibition (HepG2, 2.5 µM) | target mRNA inhibition (HepG2, 10 µM) | target mRNA inhibition (HepG2, 0.12 µM) [%] | target mRNA inhibition (HepG2, 20 µM) [%]
22 | CTCAGTTCTTCCAACCAGTG (sugars e5 d10 e5, PS) | 83% and 68% | 93% and 91% | – | –
23 | TGTAATGGTTTAGCAAAATT (sugars e5 d10 e5, PS) | – | – | 26 | –
24 | TGGATAGTCGATTTACCAGA (sugars e5 d10 e5, PS) | 62% | 90% | – | –
25 | CATGGAGCTCAGAGACTCAG (sugars e3 d14 e3, PS) | – | – | 62 | –
26 | GCAATGTTGCCATCATACTA (sugars e5 d10 e5, PS) | 63% | 88% | – | –
27 | CTCTCATTTCTTATCTTCAA (sugars e5 d10 e5, PS) | 70% | 93% | – | –
28 | CAGCGATGAGCCAGCAA (sugars e3 d10 e4, PS) | 35% | 88% | – | –
29 | TAAATAACCCACAGACACCC (sugars e5 d10 e5, PS) | – | – | 6 | –
30 | TGTGTTCCAGTCAAACACCA (sugars e5 d10 e5, PS) | – | – | 23 | –
31 | CCCTTGCGGTTCCGCAGGGT (sugars e5 d10 e5, PS) | – | – | 36 | –
32 | AGTTTGCTCAGTTCTTCCAA (sugars e5 d10 e5, PS) | 61% | 91% | – | –
33 | CCAATGCCTAGGTCACAGTT (sugars e5 d10 e5, PS) | 91% | 83% | – | –
34 | TTGTCCTAGTGCCCCAGGGA (sugars e5 d10 e5, PS) | 75% | 85% | – | –
35 | AACTGAGATCTCCAGCAGCA (sugars e5 d10 e5, PS) | 91% and 78% | 94% and 96% | – | –
36 | GTGGTTGCAATGTTGCCATC (sugars e5 d10 e5, PS) | 83% and 81% and 76% | 92% and 84% and 91% | – | –
37 | AGGGAAGCATGTGCAGCCTA (sugars e5 d10 e5, PS) | 72% and 66% | 87% and 90% | – | –
38 | CTGTGACCTCCTGCCACCTT (sugars e5 d10 e5, PS) | – | – | 25 | –
39 | AACCACTGTTGCTGAGCTCA (sugars e5 d10 e5, PS) | 74% and 72% | 88% | – | –
40 | AGTTCCTGGTGGTCAGCAGG (sugars e5 d10 e5, PS) | – | – | 58 | –
41 | TGGACCCATCGGCCCCAGGA (sugars e5 d10 e5, PS) | – | – | 52 | –
42 | ACAGCGATGAGCCAGCA (sugars e3 d10 e4, PS) | 45% | 88% | – | –

Row | Sequence | target mRNA inhibition (HepG2, 2.5 µM) | target mRNA inhibition (HepG2, 10 µM) | target mRNA inhibition (HepG2, 0.12 µM) [%] | target mRNA inhibition (HepG2, 20 µM) [%]
43 | GCGCAGGACCCCGGAGTAGG (sugars e2 d13 e5, PS) | – | – | 72 | –
44 | GGCATGGAGCTCAGAGACTC (sugars e5 d10 e5, PS) | 25% | 76% | 77 | 49
45 | ATGCCAATGCCTAGGTC (sugars e3 d10 e4, PS) | 70% and 84% | – | – | –
46 | TTCCATTTTTTACCCAACCT (sugars e5 d10 e5, PS) | 57% | 93% | – | –
47 | AATGCCAATGCCTAGGT (sugars e3 d10 e4, PS) | 70% and 69% | 81% and 82% | – | –
48 | CGCGATTCACTGAGGAC (sugars e3 d10 e4, PS) | 73% and 74% | – | – | –
49 | GAGCAGGTTCATCTGCCTTG (sugars e5 d10 e5, PS) | 81% and 61% | 92% and 83% | – | –
50 | CCTGCTTGTACACTTCATTC (sugars e5 d10 e5, PS) | 51% | 87% | – | –
51 | AGGATGCTTAACTTCTGCTG (sugars e5 d10 e5, PS) | 82% | 76% | – | –
52 | AGCTGCAAGGATGACCTTGG (sugars e5 d10 e5, PS) | 52% | 34% | – | –
53 | AGGCCTCGGGAAGCACCTGG (sugars e5 d10 e5, PS) | 39% | 84% | – | –
54 | CGTGAGCTGGTGTTCTACAA (sugars e5 d10 e5, PS) | 59% | 74% | – | –
55 | CTGGCTCAGTTCACCTCCAG (sugars e5 d10 e5, PS) | – | – | 90 | –
56 | TATTTCTGGAACTTCTTCTG (sugars e5 d10 e5, PS) | – | – | 22 | –
57 | TTAGCTCTCAGTGAAGCTGG (sugars e5 d10 e5, PS) | 93% | 82% | – | –
58 | CCCAACCTTTAAGGCCTATC (sugars e5 d10 e5, PS) | 46% | 85% | – | –
59 | GAGCACAGCGATGAGCCAGC (sugars e5 d10 e5, PS) | 43% | 91% | – | –
60 | TATCCAAAGATATAGTTCCT (sugars e5 d10 e5, PS) | – | – | 13 | –
61 | TTTCCCATGGGAGAAGATAA (sugars e5 d10 e5, PS) | – | – | 55 | –
62 | AGGTTAGCTGAGCCACCCAG (sugars e5 d10 e5, PS) | – | – | 59 | –

Reference: the OligoGym collection
